# PMC7770833, “Design, Synthesis, and Biological Evaluation of a Series of Oxazolone Carboxamides as a Novel Class of Acid Ceramidase Inhibitors” (Journal of Medicinal Chemistry, 2020)
# Counter-ions that a name gives are not always drawn.
# Target: T1, hAC (Homo sapiens, UniProt Q13510)
# T1 sequence (Q13510 22-395): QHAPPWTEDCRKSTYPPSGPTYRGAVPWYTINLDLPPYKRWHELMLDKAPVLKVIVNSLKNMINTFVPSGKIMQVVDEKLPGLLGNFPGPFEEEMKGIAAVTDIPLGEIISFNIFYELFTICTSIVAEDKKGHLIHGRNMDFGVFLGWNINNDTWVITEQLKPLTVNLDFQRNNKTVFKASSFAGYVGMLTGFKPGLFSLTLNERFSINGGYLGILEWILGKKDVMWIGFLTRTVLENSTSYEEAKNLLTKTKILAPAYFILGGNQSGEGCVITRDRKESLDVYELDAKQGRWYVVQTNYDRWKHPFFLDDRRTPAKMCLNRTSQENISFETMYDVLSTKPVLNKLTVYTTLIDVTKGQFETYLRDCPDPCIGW
# Experiment: Fluorogenic hAC assay (hAC-enriched HEK293 lysate)
# Format: biochemical
# Parameters: expressed in transfected cells; lysosome-enriched lysate
# Settings: concentrations tested 1 and 10 μM where stated
# Description: HEK293 cells stably expressing hAC (HEK293-hAC) were generated in our laboratory using a protocol, as previously described.[30] Briefly, hAC (variant 1 coding sequence, NM_177924) cDNA was purchased from Open Biosystems (clone ID 3923451) and subcloned in the mammalian expression vector pCDNA3.1, containing the neomycin resistance gene. HEK293 cells were transfected with the hAC-pCDNA3.1 construct using a JetPEI reagent (Polyplus Transfection, Illkirch-Graffenstaden, France) and following the manufacturer’s instructions. A stable cell line was generated by selection with G418 (1 mg/mL), and cell clones were derived by limited dilution plating. HEK293-hAC were grown in Dulbecco’s modified Eagle medium (DMEM) containing 10% fetal bovine serum (FBS), 1% glutamine, 1 mM sodium pyruvate, and 500 μg/mL G418. Cells were harvested and pellets were stored at −80 °C until lysosomal-enriched lysate preparation. Cells were suspended in 20 mM Tris HCl (pH 7.5) with 0.32 M sucrose, sonicated, and centrifuged at 800 × g for 30 min at 4 °C. Supernatants were then centrifuged at 12 000 × g for 30 min at 4 °C. Pellets were re-suspended in PBS (pH 7.4) and subjected to three freeze–thaw cycles at −80 °C. The suspension was finally centrifuged at 105 000 × g for 1 h at 4 °C, and protein concentration was measured in the supernatant with a bicinchoninic acid based protein assay. This hAC-enriched preparation allowed us to further optimize the enzymatic assay and to use small amounts of lysate (2 μg/well) at the 5 μM substrate (Rbm14-12) around its KM (KM = 5.0 μM).
# The assay was performed in Optiplate 96-wells black plates, with each reaction well containing a mixture of 25 mM NaOAc buffer (pH 4.5) and a fixed amount of protein (2 μg) in a volume of 85 μL. After 10 min of pre-incubation with the test compounds (diluted 20× from DMSO stock solutions at different concentrations), the fluorogenic probe was added (diluted 40× from EtOH stock solution, final concentration 5 μM). After 3 h incubation at 37 °C, reactions were stopped with 50 μL of MeOH and 100 μL of a 2.5 mg/mL NaIO4 fresh solution in 100 mM glycine/NaOH buffer (pH 10.6). The plates were further incubated for 2 h at 37 °C in the dark and fluorescence intensities were measured at excitation/emission wavelengths of 355/460 nm. Negative control samples consisted of the same incubation mixture in the absence of protein-enriched extracts. Data were plotted as a function of compound concentrations. IC50 values were calculated by nonlinear regression analysis using GraphPad Prism 5 (GraphPad Software Inc., CA, USA) applying a standard slope curve fitting. The reported IC50 values are the mean of at least three independent experiments performed in three technical replicates.
row,Structure (SMILES),"hAC inhibition, result in words"
1,"CC(C)CNC(=O)n1cc(-c2ccc(F)c(C3CCN(C)CC3)c2)oc1=O [Compound 25f, 5-[4-Fluoro-3-(1-methyl-4-piperidyl)phenyl]-N-isobutyl-2-oxo-oxazole-3-carboxamide]",complete loss in potency
2,"COCCCNC(=O)n1cc(-c2ccccc2)oc1=O [Compound 12d, N-(3-Methoxypropyl)-2-oxo-5-phenyl-oxazole-3-carboxamide]",complete loss in potency
3,"CC(C)CNC(=O)n1cc(-c2ccc(F)cc2C2CCN(C)CC2)oc1=O [Compound 32c, 5-[4-Fluoro-2-(1-methyl-4-piperidyl)phenyl]-N-isobutyl-2-oxo-oxazole-3-carboxamide Hydrochloride]",complete loss in potency
4,"CCC(C)NC(=O)n1cc(-c2ccccc2)oc1=O (racemic) [Compound 12f, (±) 2-Oxo-5-phenyl-N-s-butyl-oxazole-3-carboxamide]",not active up to 10 μM

# Same assay, conditions: fluorogenic substrate Rbm14-12 5 μM, pH 4.5; mean of at least three experiments
row,Structure (SMILES),hAC IC50 (μM)±SD
1,"O=C(NCCCCc1ccccc1)n1cc(-c2ccc(F)cc2)oc1=O [Compound 12j, 5-(4-Fluorophenyl)-2-oxo-N-(4-phenylbutyl)oxazole-3-carboxamide]",submicromolar

# Same assay, conditions: fluorogenic substrate Rbm14-12 5 μM, pH 4.5; mean of at least three experiments; read-out: hAC IC50 (μM)±SD
row,Structure (SMILES),IC50
1,"O=C(NCCCCc1ccccc1)n1c(-c2ccccc2)coc1=O [Compound 8a, 2-Oxo-4-phenyl-N-(4-phenylbutyl)oxazole-3-carboxamide]",0.007 ± 0.001 µM

# Same assay, conditions: supplementary CSV
row,Structure (SMILES),"hAC, IC50 (micromicrolar)"
1,"O=C(NCCCCc1ccccc1)N1C[C@@H](c2ccccc2)OC1=O [Compound 18b, (5R)-(+)-2-Oxo-5-phenyl-N-(4-phenylbutyl)oxazolidine-3-carboxamide]",not active up to 10 micromolar
2,"CN1CCC(c2cc(F)ccc2-c2c[nH]c(=O)o2)CC1 [Compound 31c, 5-[4-Fluoro-2-(1-methyl-4-piperidyl)phenyl]-3H-oxazol-2-one]",not active up to 10 micromolar
3,"CC(C)CNC(=O)n1cc(-c2ccc(F)c(C3CCN(C)CC3)c2)oc1=O [Compound 25f, 5-[4-Fluoro-3-(1-methyl-4-piperidyl)phenyl]-N-isobutyl-2-oxo-oxazole-3-carboxamide]",not active up to 10 micromolar
4,"O=C(Nc1ccccc1)n1cc(-c2ccccc2)oc1=O [Compound 12g, 2-Oxo-N,5-diphenyl-oxazole-3-carboxamide]",not active up to 10 micromolar
5,"COCCCNC(=O)n1cc(-c2ccccc2)oc1=O [Compound 12d, N-(3-Methoxypropyl)-2-oxo-5-phenyl-oxazole-3-carboxamide]",not active up to 10 micromolar
6,"O=c1[nH]cc(-c2ccccc2)o1 [Compound 11a, 5-Phenyl-3H-oxazol-2-one]",not active up to 10 micromolar
7,"CN(CCCCc1ccccc1)C(=O)n1cc(-c2ccccc2)oc1=O [Compound 13a, N-Methyl-2-oxo-5-phenyl-N-(4-phenylbutyl)oxazole-3-carboxamide]",not active up to 10 micromolar
8,"O=C(NCCCCc1ccccc1)N1C(=O)OC[C@@H]1c1ccccc1 [Compound 15a, (4S)-(+)-2-Oxo-4-phenyl-N-(4-phenylbutyl)oxazolidine-3-carboxamide]",not active up to 10 micromolar
9,"O=C(CCCCCc1ccccc1)n1cc(-c2ccccc2)oc1=O [Compound 13c, 5-Phenyl-3-(6-phenylhexanoyl)oxazol-2-one]",not active up to 10 micromolar
10,"O=C(NCCCCc1ccccc1)N1C(=O)OC[C@H]1c1ccccc1 [Compound 15b, (4R)-(−)-2-Oxo-4-phenyl-N-(4-phenylbutyl)oxazolidine-3-carboxamide]",not active up to 10 micromolar
11,"CC(C)CNC(=O)n1cc(-c2ccc(F)cc2C2CCN(C)CC2)oc1=O [Compound 32c, 5-[4-Fluoro-2-(1-methyl-4-piperidyl)phenyl]-N-isobutyl-2-oxo-oxazole-3-carboxamide Hydrochloride]",not active up to 10 micromolar
12,"O=C(OCCCCc1ccccc1)n1cc(-c2ccccc2)oc1=O [Compound 13b, 4-Phenylbutyl-2-oxo-5-phenyl-oxazole-3-carboxylate]",not active up to 10 micromolar
13,"O=C(NCCCCc1ccccc1)N1C[C@H](c2ccccc2)OC1=O [Compound 18a, (5S)-(−)-2-Oxo-5-phenyl-N-(4-phenylbutyl)oxazolidine-3-carboxamide]",not active up to 10 micromolar
14,"CCC(C)NC(=O)n1cc(-c2ccccc2)oc1=O (racemic) [Compound 12f, (±) 2-Oxo-5-phenyl-N-s-butyl-oxazole-3-carboxamide]",not active up to 10 micromolar

# System: rat AC (rAC)
# Experiment: not given
# Settings: cited from earlier work
row,Structure (SMILES),IC50
1,CCCCCCNC(=O)n1cc(F)c(=O)n(C(=O)OCC(C)C)c1=O [Compound 1c],16 nM
2,CCCCCCNC(=O)n1cc(Cl)c(=O)[nH]c1=O [Compound 1a],67 nM
3,CCCCCCNC(=O)n1cc(F)c(=O)[nH]c1=O [carmofur],29 nM
4,CCCCCCNC(=O)n1cc(C(F)(F)F)c(=O)[nH]c1=O [Compound 1b],12 nM

# System: hAC
# Experiment: not given
# Settings: cited from earlier work
row,Structure (SMILES),IC50
1,O=C(NCCCCc1ccccc1)n1c(=O)oc2ccccc21 [Compound 4a],64 nM
2,O=C(NCCCCc1ccccc1)n1c(=O)oc2cc(Cl)ccc21 [Compound 4c],33 nM
3,CC(C)CNC(=O)n1c(=O)oc2cc(C3CCN(C)CC3)ccc21 [Compound 4d],166 nM
4,Cc1ccc(CNC(=O)n2cnc3ccccc32)cc1 [Compound 3d],14.8 nM
5,COc1nc2ccccc2n1C(=O)NCCCCc1ccccc1 [Compound 3b],13.9 nM
6,O=C(NCCCCc1ccccc1)n1c(=O)oc2cc(-c3ccc(F)cc3)ccc21 [Compound 4b],79 nM
7,O=C(NCc1ccccc1)n1cnc2ccccc21 [Compound 3c],22.5 nM
8,O=C(NCCCCc1ccccc1)n1cnc2ccccc21 [Compound 3a],2.5 nM

# Target: T1, hAC
# Experiment: Michaelis–Menten analysis of hAC
# Format: biochemical
# Parameters: expressed in transfected cells; lysosome-enriched lysate
# Settings: 12a 25 nM
# Procedure: Assay conditions for the kinetic studies were the same as those described for the fluorogenic hAC assay. The enzyme-enriched lysate (2 μg) was incubated with the following concentrations of substrate Rbm14-12: 0.25, 0.5, 1, 2.5, 5, 10, 12.5, 15 μM. Compound 12a was used at a final concentration of 25 and 100 nM. Initial velocities (V0) were determined and automatically fitted to the Michaelis–Menten equation to obtain kinetic parameters (KM and Vmax). The graph is representative of two independent experiments, each performed in three technical replicates. Graphs and data analysis were performed using GraphPad Prism 5 software (GraphPad Software Inc., CA, USA).
row,Structure (SMILES),hAC Vmax
1,"O=C(NCCCCc1ccccc1)n1cc(-c2ccccc2)oc1=O [Compound 12a, 2-Oxo-5-phenyl-N-(4-phenylbutyl)oxazole-3-carboxamide]",18201 M/h

# Same assay, conditions: 12a 100 nM
row,Structure (SMILES),hAC Vmax
1,"O=C(NCCCCc1ccccc1)n1cc(-c2ccccc2)oc1=O [Compound 12a, 2-Oxo-5-phenyl-N-(4-phenylbutyl)oxazole-3-carboxamide]",12016 M/h

# Same assay, conditions: hAC-enriched lysates, in words
Structure (SMILES),effect on Michaelis–Menten constant (KM),effect on maximal catalytic velocity of AC (Vmax)
"O=C(NCCCCc1ccccc1)n1cc(-c2ccccc2)oc1=O [Compound 12a, 2-Oxo-5-phenyl-N-(4-phenylbutyl)oxazole-3-carboxamide]",without influencing,concentration-dependent reduction

# System: not listed separately
# Experiment: Aqueous kinetic solubility assay
# Format: physicochemical
# Settings: PBS pH 7.4
# Procedure: The aqueous kinetic solubility was determined from a 10 mM CH3CN stock solution of the test compound in PBS at pH 7.4. The study was performed by the incubation of an aliquot of 10 mM CH3CN stock solution in PBS (pH 7.4) at a target concentration of 250 μM. The incubation was carried out under shaking at 25 °C for 1 h, followed by centrifugation at 21 100 × g for 30 min. The supernatant was analyzed by UPLC/MS for the quantification of the dissolved compound (in μM) by UV at a specific wavelength (215 nm). […] The UPLC/MS analyses were performed on a Waters Acquity UPLC/MS system consisting of SQDMS equipped with an ESI interface and a PDA detector. The PDA range was 210–400 nm. ESI in positive mode was used in the mass scan range 100–650 Da. The analyses were run on an Acquity UPLC BEH C18 column (50 × 2.1 mm ID, particle size 1.7 μm) with a VanGuard BEH C18 pre-column (5 × 2.1 mm ID, particle size 1.7 μm), using 10 mM NH4OAc in H2O at pH 5 adjusted with AcOH (A) and 10 mM NH4OAc in CH3CN/H2O (95:5) at pH 5 (B) as the mobile phase. The values are the mean of at least two independent experiments performed in two technical replicates.
row,Structure (SMILES),solubility at 1 h
1,"CN1CCC(c2cn(C(=O)NCCCCc3ccccc3)c(=O)o2)CC1 [Compound 12y, 5-(1-Methyl-4-piperidyl)-2-oxo-N-(4-phenylbutyl)oxazole-3-carboxamide]",248 µM
